From ChEMBL document CHEMBL1201862, “PubChem BioAssay data set” (2004)
The source made the active and inactive calls.

Columns and labels:
[1] = target: T1, Polyadenylate-binding protein 1 (Homo sapiens, UniProt P11940); assay: PABP1 MLLE–PAM2 binding inhibitor potency, dose response, biochemical, fluorescence polarization, FITC-PAM2 peptide (AID 602259); type: functional; conditions: read-out: IC50_Mean
[2] = target: T1, Polyadenylate-binding protein 1; assay: PABP1 MLLE–PAM2 interaction inhibitors, dose response, miRNA deadenylation inhibitor project, biochemical, fluorescence polarization, Cy5-PAM2 peptide, secondary (AID 602260); type: functional; conditions: read-out: IC50_Mean
Cytochrome P450 3A4 = Cytochrome P450 3A4 (Homo sapiens, UniProt P08684);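 further: CYP3A4 tested as one member of a cytochrome P450 panel screen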
Cytochrome P450 3A4, sequence (P08684 whole entry, the tested form may be a part): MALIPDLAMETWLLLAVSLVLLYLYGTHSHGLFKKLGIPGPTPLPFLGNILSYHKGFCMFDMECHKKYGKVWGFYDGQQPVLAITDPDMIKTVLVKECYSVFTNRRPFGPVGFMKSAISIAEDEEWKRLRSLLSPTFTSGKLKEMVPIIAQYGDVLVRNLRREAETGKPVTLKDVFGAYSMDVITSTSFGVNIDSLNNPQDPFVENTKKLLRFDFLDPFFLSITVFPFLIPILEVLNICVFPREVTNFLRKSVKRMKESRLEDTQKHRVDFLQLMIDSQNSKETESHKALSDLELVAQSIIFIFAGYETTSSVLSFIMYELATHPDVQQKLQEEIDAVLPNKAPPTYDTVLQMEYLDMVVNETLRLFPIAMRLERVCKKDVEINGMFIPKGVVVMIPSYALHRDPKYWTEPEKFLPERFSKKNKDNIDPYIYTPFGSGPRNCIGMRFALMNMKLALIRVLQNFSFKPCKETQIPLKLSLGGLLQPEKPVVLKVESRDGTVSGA

[3] = target: T2, RNA-binding protein pos-1 (Caenorhabditis elegans, UniProt G5EF15); assay: inhibitors of POS-1/mex-3 RNA binding, dose response, biochemical, fluorescence polarization (AID 1964);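 further: purified POS-1 fused to maltose binding protein made in E. coli; potency of compounds blocking POS-1 binding to fluorescent RNA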
T2 sequence (G5EF15 whole entry): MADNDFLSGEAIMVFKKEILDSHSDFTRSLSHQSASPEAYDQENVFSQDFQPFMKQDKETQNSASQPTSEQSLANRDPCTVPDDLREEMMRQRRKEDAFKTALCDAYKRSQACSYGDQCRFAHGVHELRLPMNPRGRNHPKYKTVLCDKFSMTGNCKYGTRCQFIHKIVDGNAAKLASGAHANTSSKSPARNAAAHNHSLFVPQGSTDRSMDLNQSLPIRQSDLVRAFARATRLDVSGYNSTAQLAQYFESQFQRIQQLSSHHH

[4] = target: T3, Zinc finger protein mex-5 (Caenorhabditis elegans, UniProt Q9XUB2); assay: MEX-5/TCR-2 RNA interaction inhibitors, dose response, biochemical, C. elegans, fluorescence polarization (AID 1960)
T3 sequence (Q9XUB2 whole entry): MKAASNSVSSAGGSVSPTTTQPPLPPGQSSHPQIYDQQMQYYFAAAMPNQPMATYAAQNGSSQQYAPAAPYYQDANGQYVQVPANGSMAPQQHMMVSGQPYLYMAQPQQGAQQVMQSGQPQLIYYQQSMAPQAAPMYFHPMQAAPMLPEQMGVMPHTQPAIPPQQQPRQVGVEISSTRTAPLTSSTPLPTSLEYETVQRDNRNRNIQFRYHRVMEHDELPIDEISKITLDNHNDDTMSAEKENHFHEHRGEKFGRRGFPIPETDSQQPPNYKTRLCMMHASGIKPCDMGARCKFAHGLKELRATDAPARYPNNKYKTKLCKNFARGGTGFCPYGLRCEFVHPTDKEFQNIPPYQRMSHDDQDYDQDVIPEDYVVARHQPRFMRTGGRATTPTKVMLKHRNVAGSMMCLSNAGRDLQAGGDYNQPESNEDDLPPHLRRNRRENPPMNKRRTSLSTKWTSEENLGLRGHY

[5] = ZM109 Env clade C HIV-1 fusion inhibitors, dose response, HeLa effector, CEM target cells, luciferase, cherry-pick (AID 652058); type: functional, cell-based
[6] = target: T4, Heat shock factor protein 1 (Mus musculus, UniProt P38532); assay: inhibition of MG132-induced HSE-luciferase signal, confirmation, cell-based, NIH3T3, luminescence, dose retest (AID 2382); type: functional;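 further: NIH3T3 fibroblasts with HSF1-driven luciferase reporter stressed by proteasome inhibitor MG132; luminescence from HSF1-driven luciferase expression after 8 hours of MG132 stress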
T4 sequence (P38532 whole entry): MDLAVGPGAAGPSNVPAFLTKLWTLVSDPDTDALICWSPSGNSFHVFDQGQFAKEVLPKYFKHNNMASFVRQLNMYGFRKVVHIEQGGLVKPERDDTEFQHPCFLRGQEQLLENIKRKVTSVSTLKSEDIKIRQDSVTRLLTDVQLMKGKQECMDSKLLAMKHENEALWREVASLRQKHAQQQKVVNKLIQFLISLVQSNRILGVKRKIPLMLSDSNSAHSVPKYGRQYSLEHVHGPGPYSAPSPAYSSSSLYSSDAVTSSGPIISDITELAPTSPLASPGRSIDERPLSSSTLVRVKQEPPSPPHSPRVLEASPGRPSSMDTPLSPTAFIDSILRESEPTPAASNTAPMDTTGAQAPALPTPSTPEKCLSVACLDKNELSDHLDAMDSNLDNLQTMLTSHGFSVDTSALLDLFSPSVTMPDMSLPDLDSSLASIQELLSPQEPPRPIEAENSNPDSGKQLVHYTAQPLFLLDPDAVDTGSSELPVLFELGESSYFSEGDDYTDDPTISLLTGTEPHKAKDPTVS

Cytochrome P450 2C9 = Cytochrome P450 2C9 (Homo sapiens, UniProt P11712)
Cytochrome P450 2C9, sequence (P11712 whole entry): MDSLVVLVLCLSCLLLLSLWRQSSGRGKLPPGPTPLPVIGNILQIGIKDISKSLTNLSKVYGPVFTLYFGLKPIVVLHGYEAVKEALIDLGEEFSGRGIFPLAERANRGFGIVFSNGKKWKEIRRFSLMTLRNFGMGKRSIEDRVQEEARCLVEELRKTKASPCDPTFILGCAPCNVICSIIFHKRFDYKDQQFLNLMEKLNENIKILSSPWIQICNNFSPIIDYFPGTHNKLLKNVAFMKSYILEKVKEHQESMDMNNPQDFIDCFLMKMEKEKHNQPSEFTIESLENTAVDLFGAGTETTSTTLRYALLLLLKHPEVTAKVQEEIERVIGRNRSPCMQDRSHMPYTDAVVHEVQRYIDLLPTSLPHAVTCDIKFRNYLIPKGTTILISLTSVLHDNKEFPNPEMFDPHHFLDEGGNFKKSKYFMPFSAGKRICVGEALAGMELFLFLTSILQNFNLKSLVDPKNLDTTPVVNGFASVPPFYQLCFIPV

Cytochrome P450 2C19 = Cytochrome P450 2C19 (Homo sapiens, UniProt P33261); assay: Cytochrome panel assay with activity outcomes. Panel member name: p450-cyp2c19 Compounds with AC50 equal or less than 10 uM are considered active; type: functional
Cytochrome P450 2C19, sequence (P33261 whole entry, the tested form may be a part): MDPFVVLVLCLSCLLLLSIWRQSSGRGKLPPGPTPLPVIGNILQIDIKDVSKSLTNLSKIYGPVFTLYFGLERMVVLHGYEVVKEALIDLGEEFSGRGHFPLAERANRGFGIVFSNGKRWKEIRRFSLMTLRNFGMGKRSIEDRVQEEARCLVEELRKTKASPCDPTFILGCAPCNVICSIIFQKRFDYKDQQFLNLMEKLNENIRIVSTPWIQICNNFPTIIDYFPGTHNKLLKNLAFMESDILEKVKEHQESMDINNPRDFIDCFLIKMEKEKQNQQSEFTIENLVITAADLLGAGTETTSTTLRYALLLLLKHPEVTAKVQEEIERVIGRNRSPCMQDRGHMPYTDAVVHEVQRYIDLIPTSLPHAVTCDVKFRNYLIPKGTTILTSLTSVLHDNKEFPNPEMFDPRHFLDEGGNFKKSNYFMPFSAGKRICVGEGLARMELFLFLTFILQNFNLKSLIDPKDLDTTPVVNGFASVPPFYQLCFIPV

[7] = inhibitors of clade B AD8 Env fusion, dose response, cell-based, cherry-pick (AID 652062); type: functional;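 further: luciferase signal from cell-cell fusion driven by HIV-1 clade B AD8 Env; potency is for inhibitors of fusion seen as a drop in luminescence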
Protein RecA = target: T5, Protein RecA (Mycobacterium tuberculosis, UniProt P9WHJ3); assay: Fluorescence Cell-Free Homogeneous Dose Retest to Identify Inhibitors of RecA-Intein Splicing Activity. [Related pubchem assays (depositor defined):AID2097, AID2223, AID489010, AID492950]; type: functional
T5 sequence (P9WHJ3 whole entry): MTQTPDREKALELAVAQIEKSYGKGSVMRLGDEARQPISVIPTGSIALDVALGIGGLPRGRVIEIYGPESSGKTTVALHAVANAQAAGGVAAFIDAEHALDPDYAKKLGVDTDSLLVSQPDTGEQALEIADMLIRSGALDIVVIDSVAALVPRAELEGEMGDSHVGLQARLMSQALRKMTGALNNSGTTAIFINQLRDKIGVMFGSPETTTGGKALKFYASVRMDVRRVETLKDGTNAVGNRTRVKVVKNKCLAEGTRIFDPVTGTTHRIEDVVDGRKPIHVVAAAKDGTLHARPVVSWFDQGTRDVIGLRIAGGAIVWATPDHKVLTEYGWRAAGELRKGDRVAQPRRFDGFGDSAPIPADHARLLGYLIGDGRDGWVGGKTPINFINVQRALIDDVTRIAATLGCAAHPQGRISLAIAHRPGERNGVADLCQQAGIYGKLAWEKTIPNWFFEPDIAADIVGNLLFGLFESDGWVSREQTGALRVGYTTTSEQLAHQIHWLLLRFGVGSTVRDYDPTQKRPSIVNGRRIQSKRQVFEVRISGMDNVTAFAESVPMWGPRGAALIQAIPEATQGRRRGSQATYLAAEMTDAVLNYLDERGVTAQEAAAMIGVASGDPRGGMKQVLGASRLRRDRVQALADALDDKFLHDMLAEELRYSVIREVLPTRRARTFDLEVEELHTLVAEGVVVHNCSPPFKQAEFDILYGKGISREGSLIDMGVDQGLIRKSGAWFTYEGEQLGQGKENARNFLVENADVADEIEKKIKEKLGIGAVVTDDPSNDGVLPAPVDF

[8] = target: T6, Replicative DNA helicase DnaB (Mycobacterium tuberculosis, UniProt P9WMR3); assay: DnaB intein splicing inhibitors, dose response, biochemical, cell-free fluorescence (AID 449749); type: functional
T6 sequence (P9WMR3 whole entry): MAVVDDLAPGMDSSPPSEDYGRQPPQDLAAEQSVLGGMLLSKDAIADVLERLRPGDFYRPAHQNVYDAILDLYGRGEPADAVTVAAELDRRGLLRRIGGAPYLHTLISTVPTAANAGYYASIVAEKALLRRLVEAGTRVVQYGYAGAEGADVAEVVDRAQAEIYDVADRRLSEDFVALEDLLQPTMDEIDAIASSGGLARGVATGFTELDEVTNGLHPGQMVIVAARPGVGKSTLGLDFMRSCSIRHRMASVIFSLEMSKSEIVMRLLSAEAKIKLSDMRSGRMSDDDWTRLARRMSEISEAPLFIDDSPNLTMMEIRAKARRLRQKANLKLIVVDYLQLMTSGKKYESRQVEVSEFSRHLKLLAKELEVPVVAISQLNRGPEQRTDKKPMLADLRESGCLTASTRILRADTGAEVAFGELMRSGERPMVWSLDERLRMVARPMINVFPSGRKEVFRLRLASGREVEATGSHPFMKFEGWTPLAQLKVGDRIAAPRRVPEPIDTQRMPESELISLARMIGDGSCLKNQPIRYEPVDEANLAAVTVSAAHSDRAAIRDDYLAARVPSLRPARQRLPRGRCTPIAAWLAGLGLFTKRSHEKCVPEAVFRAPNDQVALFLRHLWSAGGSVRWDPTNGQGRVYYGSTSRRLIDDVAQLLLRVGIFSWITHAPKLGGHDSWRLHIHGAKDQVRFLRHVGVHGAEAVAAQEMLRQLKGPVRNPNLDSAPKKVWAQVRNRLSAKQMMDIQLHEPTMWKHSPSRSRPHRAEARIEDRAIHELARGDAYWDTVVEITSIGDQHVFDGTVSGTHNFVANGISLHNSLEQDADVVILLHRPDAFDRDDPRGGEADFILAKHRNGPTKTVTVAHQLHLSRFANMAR

Leucine aminopeptidase = target: T7, Leucine aminopeptidase (Plasmodium falciparum 3D7, UniProt Q8IL11); assay: P. falciparum M17LAP inhibitors, primary screen, biochemical, fluorogenic H-Leu-NHMec substrate, 1536-well (AID 1619); type: functional
T7 sequence (Q8IL11 whole entry): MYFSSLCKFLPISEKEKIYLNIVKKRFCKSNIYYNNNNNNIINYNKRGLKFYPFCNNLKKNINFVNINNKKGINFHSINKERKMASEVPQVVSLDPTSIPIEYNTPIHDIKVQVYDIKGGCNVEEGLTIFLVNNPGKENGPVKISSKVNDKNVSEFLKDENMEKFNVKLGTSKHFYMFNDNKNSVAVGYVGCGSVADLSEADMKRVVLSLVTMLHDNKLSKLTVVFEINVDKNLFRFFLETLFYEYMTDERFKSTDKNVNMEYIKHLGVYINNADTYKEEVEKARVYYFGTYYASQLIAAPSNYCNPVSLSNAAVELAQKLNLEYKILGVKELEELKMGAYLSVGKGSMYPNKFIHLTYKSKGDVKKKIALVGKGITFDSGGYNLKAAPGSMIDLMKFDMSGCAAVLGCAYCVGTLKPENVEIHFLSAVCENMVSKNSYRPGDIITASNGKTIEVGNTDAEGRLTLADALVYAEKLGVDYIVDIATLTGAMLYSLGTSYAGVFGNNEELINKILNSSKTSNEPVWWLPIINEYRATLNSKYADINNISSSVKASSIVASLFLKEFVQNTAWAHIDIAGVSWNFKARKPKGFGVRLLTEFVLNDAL

[9] = NIH-3T3 fibroblast cytotoxicity, dose response, cytotoxicity control, cell-based, fluorescence, Alamar Blue, secondary assay (AID 2327); type: functional;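 further: NIH-3T3 mouse fibroblasts cultured with fluconazole at 8 µg/mL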

T1 sequence (P11940 whole entry): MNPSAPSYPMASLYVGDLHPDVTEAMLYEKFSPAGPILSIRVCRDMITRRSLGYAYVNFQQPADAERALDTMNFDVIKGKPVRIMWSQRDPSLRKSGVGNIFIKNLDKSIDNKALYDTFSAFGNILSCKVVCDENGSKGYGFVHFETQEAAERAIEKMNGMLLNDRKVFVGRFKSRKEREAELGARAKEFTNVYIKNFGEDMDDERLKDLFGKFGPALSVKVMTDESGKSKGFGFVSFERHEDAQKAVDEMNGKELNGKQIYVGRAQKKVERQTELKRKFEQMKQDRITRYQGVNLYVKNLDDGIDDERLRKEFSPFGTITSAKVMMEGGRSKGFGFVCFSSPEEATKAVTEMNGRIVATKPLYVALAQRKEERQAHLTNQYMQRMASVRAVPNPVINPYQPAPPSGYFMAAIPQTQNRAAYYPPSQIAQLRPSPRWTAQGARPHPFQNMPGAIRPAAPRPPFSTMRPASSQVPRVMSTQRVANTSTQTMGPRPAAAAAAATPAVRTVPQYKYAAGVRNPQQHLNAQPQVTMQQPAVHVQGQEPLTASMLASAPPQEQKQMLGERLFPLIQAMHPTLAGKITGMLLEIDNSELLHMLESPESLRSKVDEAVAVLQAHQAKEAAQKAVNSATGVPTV

SMILES: COC(=O)c1cc(-c2ccccc2)sc1NC(=O)CN1C(=O)c2ccccc2C1=O
- IC50 [1]: > 66 µM (inactive)
- IC50 [2]: > 66 µM (inactive)
- AC50 (Cytochrome P450 3A4): 31.6 µM (inconclusive)

SMILES: CCC1(c2ccccc2)NC(=O)N(CC(=O)NCc2ccc(F)cc2)C1=O (stereo not drawn)
- EC50 [3]: > 300 µM (not active)
- EC50 [4]: > 300 µM (not active)

SMILES: CCOc1ccccc1C(=O)NCC(=O)NNC(=O)CN(C)S(=O)(=O)c1ccc(Cl)cc1
- AC50 [5]: 23.6 µM (active)

SMILES: O=S(=O)(NCCCSc1ccccc1)c1ccccc1F
- IC50 [1]: > 66 µM (inactive)
- IC50 [2]: > 66 µM (inactive)

SMILES: O=C(c1ccco1)N1CCN(c2ncnc3c(-c4ccc(Cl)cc4)nsc23)CC1
- EC50 [3]: > 300 µM (not active)
- EC50 [4]: > 300 µM (not active)

SMILES: COc1ccc(C(=O)NC(=S)N2CCCc3ccccc32)cc1OC
- IC50 [1]: > 66 µM (inactive)
- IC50 [2]: > 66 µM (inactive)

SMILES: NC(=O)CC(NC(=O)Cc1ccc(Cl)cc1)c1ccc(NC2CCCCCC2)c([N+](=O)[O-])c1 (stereo not drawn)
- EC50 [3]: > 300 µM (not active)
- EC50 [4]: > 300 µM (not active)
- EC50 [6]: > 195 µM (not active)

SMILES: Cc1nc(N=C(N)S)sc1C(=O)Nc1ccccc1
- IC50 [1]: > 66 µM (inactive)
- AC50 (Cytochrome P450 2C9): 39.8 µM (inconclusive)
- IC50 [2]: > 66 µM (inactive)
- AC50 (Cytochrome P450 3A4): 14.1 µM (inconclusive)
- AC50 (Cytochrome P450 2C19): inconclusive

SMILES: CC1=C(C#N)C(=O)OC(C)(C)C1
- EC50 [3]: 10.8 µM (active)
- EC50 [4]: 10.1 µM (active)

SMILES: Cc1cc(O)nc(SCC(=O)Nc2ccc(C(=O)O)cc2)n1
- IC50 [1]: > 66 µM (inactive)
- IC50 [2]: > 66 µM (inactive)

SMILES: O=C(NC(=S)Nc1ccc(CN2CCOCC2)cc1)c1ccc([N+](=O)[O-])cc1
- IC50 [1]: > 66 µM (inactive)
- IC50 [2]: > 66 µM (inactive)

SMILES: C=CC[n+]1c(-c2ccc(OC)c(OC)c2)csc1NNC(=O)Nc1ccccc1
- AC50 [5]: 0.401 µM (active)
- AC50 [7]: 15.8 µM (active)

SMILES: CCCN1C(=O)/C(=C/c2ccc(C)o2)S/C1=N/c1ccc(OC)cc1
- EC50 [3]: 44.6 µM (active)
- EC50 [4]: 103 µM (inconclusive)

SMILES: O=C(/N=C1\SC2CS(=O)(=O)CC2N1c1ccccc1)C1CC1 (stereo not drawn)
- EC50 [3]: > 300 µM (not active)
- EC50 [4]: > 300 µM (inconclusive)

SMILES: COc1cccc(C(=O)NCc2ccc3[nH]c(C)cc3c2)c1
- IC50 [1]: > 66 µM (inactive)
- IC50 [2]: > 66 µM (inactive)

SMILES: CC(/C=N/NC(=O)Cc1cc(O)[nH]n1)=C\c1ccccc1
- EC50 (Protein RecA): 0.935 µM (active)
- AC50 [8]: 2.53 µM (active)
- IC50 (Leucine aminopeptidase): 72.4 µM (active)

SMILES: C=C(C)c1cccc(C(C)(C)NC(=O)Nc2ccc(C(N)=O)cc2)c1
- EC50 [9]: > 150 µM (inactive)

SMILES: Cc1ccc2nc(O)c(C(c3nnnn3CC3CCCO3)N3CCc4ccccc4C3)cc2c1 (stereo not drawn)
- IC50 [1]: > 66 µM (inactive)
- IC50 [2]: > 66 µM (inactive)

SMILES: CCOc1ccc(N/C(=C(/C(Cl)=C(Cl)Cl)[N+](=O)[O-])n2cncn2)cc1
- EC50 [3]: 46.9 µM (active)
- EC50 [4]: 45.4 µM (active)

SMILES: CCCCC1=CC2=CC(=O)C(C)(OC(=O)CCC(=O)OC)C(=O)C2=CO1 (stereo not drawn)
- EC50 [3]: 30 µM (active)
- EC50 [4]: 26.6 µM (active)

SMILES: COC(=O)c1c(N=C(S)Nc2cc(OC)c(Cl)cc2OC)sc2c1CCCCC2
- IC50 [1]: > 66 µM (inactive)
- IC50 [2]: > 66 µM (inactive)

SMILES: C/C(=N\Nc1ccc([N+](=O)[O-])cc1[N+](=O)[O-])c1cc2c(ccc3ccccc32)oc1=O
- EC50 [3]: > 300 µM (not active)
- EC50 [4]: > 300 µM (not active)
